By IC50 is commonly meant the point on the concentration scale where inhibition reaches its midpoint. A higher IC50 goes with a need for much substance.

Holding throughout (format): ADME
Data set [1] deals with T1, {'v': 'CYP1A1', 'o': 'p', 'q': 'Inhibition of CYP1A1 (unknown origin)'} (Homo sapiens, UniProt P04798).
T1 sequence (P04798 whole entry): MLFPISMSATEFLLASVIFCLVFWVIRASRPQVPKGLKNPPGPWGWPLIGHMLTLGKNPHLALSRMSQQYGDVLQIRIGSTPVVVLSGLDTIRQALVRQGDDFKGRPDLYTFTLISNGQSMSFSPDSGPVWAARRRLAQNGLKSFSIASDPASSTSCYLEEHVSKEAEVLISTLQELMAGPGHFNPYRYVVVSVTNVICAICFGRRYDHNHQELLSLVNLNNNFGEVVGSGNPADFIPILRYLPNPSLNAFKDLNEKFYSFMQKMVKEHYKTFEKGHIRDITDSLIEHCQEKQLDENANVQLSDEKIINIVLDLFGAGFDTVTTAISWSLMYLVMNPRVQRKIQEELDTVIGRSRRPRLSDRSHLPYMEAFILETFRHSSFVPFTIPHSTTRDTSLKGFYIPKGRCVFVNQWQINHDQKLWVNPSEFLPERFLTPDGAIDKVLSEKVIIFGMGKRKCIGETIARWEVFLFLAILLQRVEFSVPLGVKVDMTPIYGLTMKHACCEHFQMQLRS
Put plainly: Inhibition of CYP1A1 (unknown origin) assessed as remaining enzyme activity relative to control.

The target in data set [2] is T2, {'v': 'CYP1B1', 'o': 'p', 'q': 'Inhibition of CYP1B1 (unknown origin)'} (Homo sapiens, UniProt Q16678).
T2 sequence (Q16678 whole entry): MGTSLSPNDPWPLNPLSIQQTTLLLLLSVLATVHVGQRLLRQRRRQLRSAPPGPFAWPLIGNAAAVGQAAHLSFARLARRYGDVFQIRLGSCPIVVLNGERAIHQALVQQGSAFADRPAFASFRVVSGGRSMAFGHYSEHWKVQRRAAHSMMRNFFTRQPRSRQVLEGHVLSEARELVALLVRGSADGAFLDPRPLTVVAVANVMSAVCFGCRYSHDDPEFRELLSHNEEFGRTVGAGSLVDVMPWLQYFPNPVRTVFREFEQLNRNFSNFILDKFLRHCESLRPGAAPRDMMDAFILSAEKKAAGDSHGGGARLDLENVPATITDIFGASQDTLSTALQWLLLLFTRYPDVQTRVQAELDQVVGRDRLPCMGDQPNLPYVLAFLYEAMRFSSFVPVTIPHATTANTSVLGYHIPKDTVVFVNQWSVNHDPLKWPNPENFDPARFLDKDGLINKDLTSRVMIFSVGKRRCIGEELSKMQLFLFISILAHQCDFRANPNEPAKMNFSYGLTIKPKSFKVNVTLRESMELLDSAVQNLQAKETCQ
In words: Inhibition of CYP1B1 (unknown origin) assessed as remaining enzyme activity relative to control.

A further data set addresses T3, Cytochrome P450 1B1 (Homo sapiens, UniProt Q16678).
T3 sequence (Q16678 whole entry): T2 sequence (Q16678 whole entry)
In words: Inhibition of CYP1B1 (unknown origin).

The next data set deals with T4, Cytochrome P450 1A1 (Homo sapiens, UniProt P04798).
T4 sequence (P04798 whole entry): T1 sequence (P04798 whole entry)
Put plainly: Inhibition of CYP1A1 (unknown origin).

SMILES strings stand for the structures.

`N#Cc1ccc(/N=N/Nc2ccc(C#N)cc2)cc1`: the activity in data set [1] came out at 96%; in data set [2] it was 8%. The compound further gave an IC50 at Cytochrome P450 1B1 of 740 nM.

For `Brc1ccc(/N=N/Nc2ccc(Br)cc2)cc1`, the activity in data set [1] was determined as 21%; in data set [2], 9%. The IC50 against Cytochrome P450 1A1 is 3 µM; against Cytochrome P450 1B1, 51 nM.

As to `CC(=O)c1ccc(/N=N/Nc2ccc(C(C)=O)cc2)cc1`, the activity worked out at 33% in data set [1] and 19% in data set [2]. Besides, the IC50 against Cytochrome P450 1A1 came to 4 µM; against Cytochrome P450 1B1, 590 nM.

`c1ccc(N=NNc2ccccc2)cc1`: the activity in data set [1] was 9%; in data set [2], 4%. Also, the IC50 against Cytochrome P450 1A1 turned out to be 8 µM; at Cytochrome P450 1B1 it was 2000 nM.

These data come from ChEMBL document CHEMBL5131450, “Diaryl triazenes inhibit cytochrome P450 1A1 and 1B1 more strongly than aryl morpholino triazenes” (Bioorg Med Chem Lett, 2022).
